Laboratory results from patent US20090131483A1, “2-PYRIDINE DERIVATIVES AS INHIBITORS OF NEUTROPHILE ELASTASE” (priority 2005, published 2009).

Each molecule was assayed against T1, Human Neutrophil Elastase (HNE) (Homo sapiens, UniProt P08246) (assay: Human Neutrophil Elastase Quenched-FRET Assay). Settings: HNE purified from serum 1.7 nM, substrate MeOSuc-AAPV-AMC 100 μM, pH 7.5, 15 min pre-incubation, 30 min incubation at room temperature; read-out: Inhibition of Human Neutrophil Elastase IC50.
T1 construct: Human Neutrophil Elastase (HNE) purified from serum; purchased Calbiochem 324681; host or cells: purified from serum (so in the source)
T1 sequence (P08246 30-267): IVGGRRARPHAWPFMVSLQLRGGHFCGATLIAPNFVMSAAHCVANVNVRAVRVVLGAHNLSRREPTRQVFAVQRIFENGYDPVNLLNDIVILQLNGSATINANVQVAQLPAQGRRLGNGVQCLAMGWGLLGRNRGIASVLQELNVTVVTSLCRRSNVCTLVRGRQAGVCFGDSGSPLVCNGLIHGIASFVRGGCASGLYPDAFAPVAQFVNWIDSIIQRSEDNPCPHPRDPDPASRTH
Assay type: biochemical
Method: Human Neutrophil Elastase Quenched-FRET Assay
The assay uses Human Neutrophil Elastase (HNE) purified from serum (Calbiochem art. 324681; Ref. Baugh, R. J. et al., 1976, Biochemistry. 15, 836-841). H was stored in 50 mM sodium acetate (NaOAc), 200 mM sodium chloride (NaCl), pH 5.5 with added 30% glycerol at −20° C. The protease substrate used was Elastase Substrate V Fluorogenic, MeOSuc-AAPV-AMC (Calbiochem art. 324740; Ref. Castillo, M. J. et al., 1979, Anal. Biochem. 99, 53-64). The substrate was stored in dimethyl sulphoxide (DMSO) at −20° C. The assay additions were as follows: Test compounds and controls were added to black 96-well flat-bottom plates (Greiner 655076), 1 μL in 100% DMSO, followed by 30 μL HNE in assay buffer with 0.01% Triton (trade mark) X-100 detergent. The assay buffer constitution was: 100 mM Tris(hydroxymethyl)aminomethane (TRIS) (pH 7.5) and 500 mM NaCl. The enzyme and the compounds were incubated at room temperature for 15 minutes. Then 30 μl substrate in assay buffer was added. The assay was incubated for 30 minutes at room temperature. The concentrations of HNE enzyme and substrate during the incubation were 1.7 nM and 100 μM, respectively. The assay was then stopped by adding 60 μl stop solution (140 mM acetic acid, 200 mM sodium monochloroacetate, 60 mM sodium acetate, pH 4.3). Fluorescence was measured on a Wallac 1420 Victor 2 instrument at settings: Excitation 380 nm, Emission 460 nm. IC50 values were determined using Xlfit curve fitting using model 205.

Q: Which IC50 does the source give for Cc1c(-c2ccnn2C)cc(C(=O)NCc2cc(CO)no2)c(=O)n1-c1cccc(C(F)(F)F)c1 [Example 4, N-{[3-(Hydroxymethyl)isoxazol-5-yl]methyl}-6-methyl-5-(1-methyl-1H-pyrazol-5-yl)-2-oxo-1-[3-(trifluoromethyl)phenyl]1,2-dihydropyridine-3-carboxamide] here?
A: Its IC50 is 31 nM.

Q: How did the IC50 turn out when CCc1cc(C(=O)NCc2cc(CO)no2)c(=O)n(-c2cccc(C(F)(F)F)c2)c1C [Example 6, 5-Ethyl-N-{[3-(hydroxymethyl)isoxazol-5-yl]methyl}-6-methyl-2-oxo-1-[3-(trifluoromethyl)phenyl]-1,2-dihydropyridine-3-carboxamide] was run?
A: Its IC50 is 45 nM.

Q: With Cc1c(C2CC2)cc(C(=O)NCc2cc(CO)no2)c(=O)n1-c1cccc(C(F)(F)F)c1 [Example 7, 5-Cyclopropyl-N-{[3-(hydroxymethyl)isoxazol-5-yl]methyl}-6-methyl-2-oxo-1-[3-(trifluoromethyl)phenyl]-1,2-dihydropyridine-3-carboxamide] as the molecule, how does the IC50 read?
A: Its IC50 is 48 nM.

Q: For Cc1c(C#CCO)cc(C(=O)NCc2ccc(S(C)(=O)=O)cc2)c(=O)n1-c1cccc(C(F)(F)F)c1 [Example 20, 5-(3-Hydroxyprop-1-yn-1-yl)-6-methyl-N-[4-(methylsulfonyl)benzyl]-2-oxo-1-[3-(trifluoromethyl)phenyl]-1,2-dihydropyridine-3-carboxamide], which IC50 is on record?
A: The IC50 was 23 nM.

Q: Cc1c(CS(C)(=O)=O)cc(C(=O)NCc2ccc(S(=O)(=O)C3CC3)cc2)c(=O)n1-c1cccc(C(F)(F)F)c1 [Example 23, N-[4-(Cyclopropylsulfonyl)benzyl]-6-methyl-5-[(methylsulfonyl)methyl]-2-oxo-1-[3-(trifluoromethyl)phenyl]-1,2-dihydropyridine-3-carboxamide] was tested. Which IC50 did it give?
A: The IC50 was 61 nM.
